Experimental data from ChEMBL document CHEMBL5214944, “Preparation of radiolabeled erlotinib analogues and analysis of the effect of linkers” (Bioorg Med Chem Lett, 2022).

Columns and labels:
[1] = Retention time of the compound by RP-HPLC analysis; assay type: physicochemical
A-431 = experiment: Cytotoxicity against human A-431 cells assessed as inhibition of cell growth at 100 uM incubated for 24 hrs by MTT assay; assay type: toxicity, cell-based; conditions: a-431, 24 h
[2] = Cytotoxicity against human A-431 cells assessed as inhibition of cell growth at 100 uM incubated for 72 hrs by MTT assay; assay type: toxicity, cell-based
[3] = Octanol/water partition coefficient, logP of compound by gamma counter analysis; assay type: physicochemical
[4] = Biodistribution in Swiss mouse assessed as accumulation at radioactivity in liver at 3 MBq, iv and measured 1 hr post injection by gamma counter method; assay type: ADME, organism-based; conditions: in vivo
[5] = Cytotoxicity against human A-431 cells assessed as inhibition of cell growth at 50 uM incubated for 24 hrs by MTT assay; assay type: toxicity, cell-based; conditions: read-out: Activity

| SMILES | Retention_time [1] [min] | Activity (A-431) | inhibition at 72 h, 100 µM [2] [%] | other results |
| --- | --- | --- | --- | --- |
| COCCOc1cc2ncnc(Nc3cccc(-c4cn(CCOCCOCCOCCOCCOCCOCCN)nn4)c3)c2cc1OCCOC | 17.4 |  |  |  |
| COCCOc1cc2ncnc(Nc3cccc(-c4cn(CCOCCOCCOCCOCCOCCOCCNC(=S)Nc5ccc(CC6CN(CC(=O)O)CCN(CC(=O)O)CCN(CC(=O)O)CCN6CC(=O)O)cc5)nn4)c3)c2cc1OCCOC (stereo not drawn) | 18.5 | Toxic | 90.9 |  |
| COCCOc1cc2ncnc(Nc3cccc(-c4cn(CCOCCOCCOCCNC(=S)Nc5ccc(CC6CN(CC(=O)O)CCN(CC(=O)O)CCN(CC(=O)O)CCN6CC(=O)O)cc5)nn4)c3)c2cc1OCCOC (stereo not drawn) | 17.2 | Toxic | 92.6 |  |
| COCCOc1cc2ncnc(Nc3cccc(-c4cn(CCCNC(=S)Nc5ccc(CC6CN(CC(=O)O)CCN(CC(=O)O)CCN(CC(=O)O)CCN6CC(=O)O)cc5)nn4)c3)c2cc1OCCOC (stereo not drawn) | 15.9 | Non-Toxic | 91.3 |  |
| C#Cc1cccc(Nc2ncnc3cc(OCCOC)c(OCCO[11CH3])cc23)c1 |  |  |  | logP [3]: 3.2; Drug uptake [4]: 10.55 % ID/g |
| COCCOc1cc2ncnc(Nc3cccc(-c4cn(CCOCCOCCOCCN)nn4)c3)c2cc1OCCOC | 15.9 |  |  |  |
| COCCOc1cc2ncnc(Nc3cccc(-c4cn(CCCN)nn4)c3)c2cc1OCCOC | 13.5 |  |  |  |
| COCCOc1cc2ncnc(Nc3cccc(-c4cn(CC[18F])nn4)c3)c2cc1OCCOC |  |  |  | logP [3]: 2.36; Drug uptake [4]: 17.1 % ID/g |
| C#Cc1cccc(Nc2ncnc3cc(OCCOC)c(OCCOC)cc23)c1 [ERLOTINIB] |  |  | 92.7 | inhibition at 24 h, 50 µM [5]: 29.8% |
